Values quoted from earlier work as cited in patent US7476665B2, “Benzodiazepine CGRP receptor antagonists” (Merck & Co., Inc., priority 2003, dated 2009).
Read-outs that look alike come from different tables or passages of the source. Where no end group is shown, it is not given here.

Columns and labels:
facial blood flow [1] = details: marmoset, electrical stimulation of the trigeminal ganglion (Doods et al. 2000)
middle meningeal artery = details: rats, electrical stimulation of the dura mater, prior administration (Williamson et al. 1997)
facial blood flow [2] = details: rat, trigeminal ganglion stimulation (Escott et al. 1995)

| Molecule | effect on increase of facial blood flow (facial blood flow [1]) | effect on increase of middle meningeal artery diameter (middle meningeal artery) | effect on increase of facial blood flow (facial blood flow [2]) |
| --- | --- | --- | --- |
| NCCCC[C@H](NC(=O)[C@@H](Cc1cc(Br)c(O)c(Br)c1)NC(=O)N1CCC(N2Cc3ccccc3NC2=O)CC1)C(=O)N1CCN(c2ccncc2)CC1 [BIBN4096BS] | blocked | – | – |
| CGRP(8-37): a peptide CGRP antagonist (VTHRLAGLLSRSGGVVKNNFVPTNVGSKAF; ends and bridges not checked; UniProt P06881 90-119, looked up, fragment) | – | blocked | inhibited |
